How the values were obtained:
[1] = Cell viability assay (MTS), statements over the cell line panel; type: cell-based, human; conditions: human; range or statement over all tested cell lines, 48 h MTS; read-out: IC50 / cytotoxicity against the tested cell lines
Description: (§1) Five thousand cells/well were plated in 96-well plates in growth media and left for attachment for 24 h. The cells were then treated with the respective compounds using varying concentrations for 48 h. At the end of the treatment duration, a solution of MTS [3-(4,5-dimethylthiazol-2-yl)-5-(3-carboxymethoxyphenyl)-2-(4-sulfophenyl)-2H-tetrazolium] and an electron coupling reagent, PES (phenazine ethosulfate) (Promega, Madison, WI, USA) was added to the cells. Then, 15 μL of MTS reagent was added to each well, and the absorbance was assessed at 490 nm with a microplate reader (Dynex Technologies, MRX Revelation; Chantilly, VA, USA) after 1 h incubation with MTS. The data were recorded, and the IC50 value was calculated using non-linear curve regression analysis (Graph pad V8.0, CA, USA).

FHC = test: Cell viability assay (MTS), FHC; type: cell-based; conditions: FHC, normal fetal human cells, 48 h, mean ± SD
Description: as §1

HCT-116 = test: Cell viability assay (MTS), HCT-116; type: cell-based, human; conditions: Homo sapiens, HCT-116, colon cancer cells, 48 h, mean ± SD
Description: as §1

MiaPaCa-2 = test: Cell viability assay (MTS), MiaPaCa-2; type: cell-based, human; conditions: Homo sapiens, MIA PaCa-2, pancreatic cancer cells, 48 h, mean ± SD
Description: as §1

ALDH3A1 = biological target: T1, ALDH3A1 (Homo sapiens, UniProt P30838); test: ALDH isoform-specific enzyme inhibition assay, ALDH3A1; type: biochemical; conditions: 500 nM, Acetaldehyde (Substrate)
T1 construct: purchased R&D systems
T1 sequence (P30838 1-453): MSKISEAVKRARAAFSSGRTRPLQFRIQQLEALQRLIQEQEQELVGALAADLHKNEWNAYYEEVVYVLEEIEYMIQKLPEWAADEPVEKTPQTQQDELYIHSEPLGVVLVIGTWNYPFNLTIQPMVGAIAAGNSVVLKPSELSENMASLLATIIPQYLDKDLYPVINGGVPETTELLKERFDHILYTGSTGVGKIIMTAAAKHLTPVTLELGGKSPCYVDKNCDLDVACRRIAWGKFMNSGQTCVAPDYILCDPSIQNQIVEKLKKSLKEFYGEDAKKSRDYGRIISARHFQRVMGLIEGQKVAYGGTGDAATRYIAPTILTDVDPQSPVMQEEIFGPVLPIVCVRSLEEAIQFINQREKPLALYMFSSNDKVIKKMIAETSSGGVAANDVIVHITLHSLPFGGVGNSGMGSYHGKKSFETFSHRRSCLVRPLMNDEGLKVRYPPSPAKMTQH
Description: (§2) ALDH1A1, ALDH3A1, and ALDH1A3 enzyme inhibition assays were performed as reported previously. Briefly, 500 ng/100 uL of ALDH1A1, ALDH3A1, and ALDH1A3 were treated with 500 nM concentration of the tested compounds and incubated for 15 min followed by the addition of reaction mixture (substrate + Substrate mixture). […] The absorbance was measured at 450 nm. [Absorbance Control–Absorbance treated/Absorbance Control]100 was used to compute the percentage of inhibition.

ALDH1A1 = biological target: T2, ALDH1A1 (Homo sapiens, UniProt P00352); test: ALDH isoform-specific enzyme inhibition assay, ALDH1A1; type: biochemical; conditions: 500 nM, Acetaldehyde (Substrate)
T2 construct: purchased R&D systems
T2 sequence (P00352 1-501): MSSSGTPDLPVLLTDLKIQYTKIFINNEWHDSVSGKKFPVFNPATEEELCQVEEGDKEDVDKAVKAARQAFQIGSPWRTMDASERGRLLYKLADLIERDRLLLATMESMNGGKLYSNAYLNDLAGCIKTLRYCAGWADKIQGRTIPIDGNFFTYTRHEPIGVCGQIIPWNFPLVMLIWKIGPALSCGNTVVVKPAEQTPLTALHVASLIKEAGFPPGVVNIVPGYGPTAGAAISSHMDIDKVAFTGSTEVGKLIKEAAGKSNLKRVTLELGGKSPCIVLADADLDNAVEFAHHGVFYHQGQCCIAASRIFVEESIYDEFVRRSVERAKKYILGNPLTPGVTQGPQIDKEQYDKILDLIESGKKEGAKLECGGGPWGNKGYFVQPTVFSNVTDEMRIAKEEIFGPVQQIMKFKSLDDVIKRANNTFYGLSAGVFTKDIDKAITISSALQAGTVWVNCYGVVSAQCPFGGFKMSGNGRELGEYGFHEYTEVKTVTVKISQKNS
Description: as §2

HEK-293 = test: Cell viability assay (MTS), HEK-293; type: cell-based; conditions: HEK293, human embryonic kidney cells, 48 h, mean ± SD
Description: as §1

SKOV-3 = test: Cell viability assay (MTS), SKOV-3; type: cell-based, human; conditions: Homo sapiens, SK-OV-3, ovarian cancer cells, 48 h, mean ± SD
Description: as §1

[2] = test system: SKOV-3, MiaPaCa-2, HCT-116, HEK-293, and FHC cell lines; test: Cell viability assay (MTS), statements over the cell line panel; type: cell-based, human; conditions: Homo sapiens, Pancreatic cancer cell, 48 h, read-out: IC50 in cancer cell lines
Description: as §1

| SMILES | IC50 at 48 h [1] [µM] | IC50 (FHC) [µM] | IC50 (HCT-116) [µM] | IC50 (MiaPaCa-2) [µM] | inhibition at 0.5 µM (ALDH3A1) [%] | inhibition at 0.5 µM (ALDH1A1) [%] | IC50 (HEK-293) [µM] | IC50 (SKOV-3) [µM] | melting point [°C] | IC50 [2] [µM] |
| --- | --- | --- | --- | --- | --- | --- | --- | --- | --- | --- |
| Br.C=CCNC(=N)SCc1ccc(CN2C(=O)C(=O)c3cc(Br)cc(Br)c32)cc1 [Compound 1, 4-((5,7-Dibromo-2,3-dioxoindolin-1-yl)methyl)benzyl allylcarbamimidothioate hydrobromide] | 2.1 to 6.8 | 2.9 ± 0.3 | 4.7 ± 1.1 | 2.4 ± 1.1 | 30.59 ± 0.02 | 35.37 ± 0.01 | 4.1 ± 0.8 | 4.8 ± 0.2 | 118 to 120 |  |
| COC(=O)/C=C/c1ccc(CN2C(=O)C(=O)c3cc(Br)cc(Br)c32)cc1 [Compound 2, Methyl (E)-3-(4-((5,7-dibromo-2,3-dioxoindolin-1-yl)methyl)phenyl)acrylate] | > 20 | 22.9 ± 3.3 | 19.6 ± 3.3 | 22.3 ± 5.1 |  |  | 24.1 ± 6.8 | 21.8 ± 2.4 |  |  |
| Br.N=C(N)SCc1ccc(Cn2nc(Br)c3cc(C(F)(F)F)ccc32)cc1 [Compound 16, 4-((3-Bromo-5-(trifluoromethyl)-1H-indazol-1-yl)methyl)benzyl carbamimidothioate hydrobromide] | 2.1 to 6.8 | 7.1 ± 1.1 | 4.9 ± 1.1 | 6.8 ± 1.4 | -9.33 ± 0.04 | 9.46 ± 0.01 | 5.7 ± 1.3 | 4 ± 1.3 | 213 to 215 |  |
| Br.N=C(N)SCc1ccc(Cn2nc(Br)c3cccc(C(F)(F)F)c32)cc1 [Compound 17, 4-((3-Bromo-7-(trifluoromethyl)-1H-indazol-1-yl)methyl)benzyl carbamimidothioate hydrobromide] |  | > 50 | > 50 | > 50 | -25.33 ± 0.05 | 10.99 ± 0.0015 | > 50 | > 50 | 235 to 237 | > 50 |

From publication PMC11243058, “Identification of Novel Isatin Derivative Bearing a Nitrofuran Moiety as Potent Multi-Isoform Aldehyde Dehydrogenase Inhibitor” (Molecules, 2024)
